Source: the NIST ThermoML archive (doi:10.1021/acs.jced.6b00178)
Numbers after ± are expanded uncertainties.

Experiment: xn = mol fraction of the nth substance listed
Details: 100 kPa, Liquid; for viscosity: Concentric cylinders viscometry; for mass density: Vibrating tube method

CCCCn1cc[n+](C)c1.O=S(=O)([O-])C(F)(F)F [1-butyl-3-methylimidazolium trifluoromethanesulfonate] + CCCC[n+]1ccn(C)c1.O=S(=O)([N-]S(=O)(=O)C(F)(F)F)C(F)(F)F
viscosity (283.15 K, x2 = 0): 225.61 ± 12 mPa·s | viscosity (283.15 K, x2 = 0.25): 154.7 ± 8.1 mPa·s | viscosity (283.15 K, x2 = 0.5): 145 ± 7.5 mPa·s | viscosity (283.15 K, x2 = 0.746): 145.79 ± 7.6 mPa·s | mass density (283.15 K, x2 = 0): 1308.4 ± 0.7 kg/m3 | mass density (283.15 K, x2 = 0.25): 1352.7 ± 0.7 kg/m3 | mass density (283.15 K, x2 = 0.5): 1389 ± 0.7 kg/m3 | mass density (283.15 K, x2 = 0.746): 1421.8 ± 0.7 kg/m3 | viscosity (288.15 K, x2 = 0): 168.05 ± 8.8 mPa·s | viscosity (288.15 K, x2 = 0.25): 117.06 ± 6 mPa·s | viscosity (288.15 K, x2 = 0.5): 109.34 ± 5.6 mPa·s | viscosity (288.15 K, x2 = 0.746): 111.5 ± 5.7 mPa·s | mass density (288.15 K, x2 = 0): 1304.3 ± 0.7 kg/m3 | mass density (288.15 K, x2 = 0.25): 1348.3 ± 0.7 kg/m3 | mass density (288.15 K, x2 = 0.5): 1384.4 ± 0.7 kg/m3 | mass density (288.15 K, x2 = 0.746): 1417.1 ± 0.7 kg/m3 | viscosity (293.15 K, x2 = 0): 128.51 ± 6.6 mPa·s | viscosity (293.15 K, x2 = 0.25): 90.69 ± 4.6 mPa·s | viscosity (293.15 K, x2 = 0.5): 84.53 ± 4.3 mPa·s | viscosity (293.15 K, x2 = 0.746): 87.3 ± 4.4 mPa·s | mass density (293.15 K, x2 = 0): 1300.3 ± 0.7 kg/m3 | mass density (293.15 K, x2 = 0.25): 1344 ± 0.7 kg/m3 | mass density (293.15 K, x2 = 0.5): 1379.9 ± 0.7 kg/m3 | mass density (293.15 K, x2 = 0.746): 1412.4 ± 0.7 kg/m3 | viscosity (298.15 K, x2 = 0): 99.14 ± 5.1 mPa·s | viscosity (298.15 K, x2 = 0.25): 71.42 ± 3.6 mPa·s | viscosity (298.15 K, x2 = 0.5): 66.62 ± 3.4 mPa·s | viscosity (298.15 K, x2 = 0.746): 68.68 ± 3.5 mPa·s | mass density (298.15 K, x2 = 0): 1296.3 ± 0.7 kg/m3 | mass density (298.15 K, x2 = 0.25): 1339.8 ± 0.7 kg/m3 | mass density (298.15 K, x2 = 0.5): 1375.5 ± 0.7 kg/m3 | mass density (298.15 K, x2 = 0.746): 1407.8 ± 0.7 kg/m3 | viscosity (303.15 K, x2 = 0): 78.26 ± 4 mPa·s | viscosity (303.15 K, x2 = 0.25): 57.29 ± 2.9 mPa·s | viscosity (303.15 K, x2 = 0.5): 53.39 ± 2.7 mPa·s | viscosity (303.15 K, x2 = 0.746): 55.86 ± 2.8 mPa·s | mass density (303.15 K, x2 = 0): 1292.3 ± 0.7 kg/m3 | mass density (303.15 K, x2 = 0.25): 1335.5 ± 0.7 kg/m3 | mass density (303.15 K, x2 = 0.5): 1371 ± 0.7 kg/m3 | mass density (303.15 K, x2 = 0.746): 1403.2 ± 0.7 kg/m3 | viscosity (308.15 K, x2 = 0): 62.76 ± 3.2 mPa·s | viscosity (308.15 K, x2 = 0.25): 46.66 ± 2.3 mPa·s | viscosity (308.15 K, x2 = 0.5): 43.56 ± 2.2 mPa·s | viscosity (308.15 K, x2 = 0.746): 45.8 ± 2.3 mPa·s | mass density (308.15 K, x2 = 0): 1288.4 ± 0.7 kg/m3 | mass density (308.15 K, x2 = 0.25): 1331.3 ± 0.7 kg/m3 | mass density (308.15 K, x2 = 0.5): 1366.6 ± 0.7 kg/m3 | mass density (308.15 K, x2 = 0.746): 1398.6 ± 0.7 kg/m3 | viscosity (313.15 K, x2 = 0): 51.33 ± 2.6 mPa·s | viscosity (313.15 K, x2 = 0.25): 38.52 ± 1.9 mPa·s | viscosity (313.15 K, x2 = 0.5): 35.96 ± 1.8 mPa·s | viscosity (313.15 K, x2 = 0.746): 38.1 ± 1.9 mPa·s | mass density (313.15 K, x2 = 0): 1284.5 ± 0.7 kg/m3 | mass density (313.15 K, x2 = 0.25): 1327 ± 0.7 kg/m3 | mass density (313.15 K, x2 = 0.5): 1362.2 ± 0.7 kg/m3 | mass density (313.15 K, x2 = 0.746): 1394 ± 0.7 kg/m3 | viscosity (318.15 K, x2 = 0): 42.1 ± 2.1 mPa·s | viscosity (318.15 K, x2 = 0.25): 32.19 ± 1.6 mPa·s | viscosity (318.15 K, x2 = 0.5): 30.15 ± 1.5 mPa·s | viscosity (318.15 K, x2 = 0.746): 32.2 ± 1.6 mPa·s | mass density (318.15 K, x2 = 0): 1280.6 ± 0.7 kg/m3 | mass density (318.15 K, x2 = 0.25): 1322.8 ± 0.7 kg/m3 | mass density (318.15 K, x2 = 0.5): 1357.8 ± 0.7 kg/m3 | mass density (318.15 K, x2 = 0.746): 1389.4 ± 0.7 kg/m3 | viscosity (323.15 K, x2 = 0): 35.13 ± 1.8 mPa·s | viscosity (323.15 K, x2 = 0.25): 27.21 ± 1.4 mPa·s | viscosity (323.15 K, x2 = 0.5): 25.43 ± 1.3 mPa·s | viscosity (323.15 K, x2 = 0.746): 27.44 ± 1.4 mPa·s | mass density (323.15 K, x2 = 0): 1276.7 ± 0.7 kg/m3 | mass density (323.15 K, x2 = 0.25): 1318.7 ± 0.7 kg/m3 | mass density (323.15 K, x2 = 0.5): 1353.5 ± 0.7 kg/m3 | mass density (323.15 K, x2 = 0.746): 1384.9 ± 0.7 kg/m3 | viscosity (328.15 K, x2 = 0): 29.63 ± 1.5 mPa·s | viscosity (328.15 K, x2 = 0.25): 23.24 ± 1.2 mPa·s | viscosity (328.15 K, x2 = 0.5): 21.66 ± 1.1 mPa·s | viscosity (328.15 K, x2 = 0.746): 23.47 ± 1.2 mPa·s | mass density (328.15 K, x2 = 0): 1272.8 ± 0.7 kg/m3 | mass density (328.15 K, x2 = 0.25): 1314.5 ± 0.7 kg/m3 | mass density (328.15 K, x2 = 0.5): 1349.2 ± 0.7 kg/m3 | mass density (328.15 K, x2 = 0.746): 1380.4 ± 0.7 kg/m3 | viscosity (333.15 K, x2 = 0): 25.5 ± 1.3 mPa·s | viscosity (333.15 K, x2 = 0.25): 20.06 ± 1 mPa·s | viscosity (333.15 K, x2 = 0.5): 18.55 ± 0.93 mPa·s | viscosity (333.15 K, x2 = 0.746): 20.27 ± 1 mPa·s | mass density (333.15 K, x2 = 0): 1268.9 ± 0.7 kg/m3 | mass density (333.15 K, x2 = 0.25): 1310.4 ± 0.7 kg/m3 | mass density (333.15 K, x2 = 0.5): 1344.9 ± 0.7 kg/m3 | mass density (333.15 K, x2 = 0.746): 1376 ± 0.7 kg/m3 | viscosity (338.15 K, x2 = 0): 21.72 ± 1.1 mPa·s | viscosity (338.15 K, x2 = 0.25): 17.4 ± 0.88 mPa·s | viscosity (338.15 K, x2 = 0.5): 16.08 ± 0.81 mPa·s | viscosity (338.15 K, x2 = 0.746): 17.6 ± 0.89 mPa·s | mass density (338.15 K, x2 = 0): 1265.1 ± 0.7 kg/m3 | mass density (338.15 K, x2 = 0.25): 1306.2 ± 0.7 kg/m3 | mass density (338.15 K, x2 = 0.5): 1340.6 ± 0.7 kg/m3 | mass density (338.15 K, x2 = 0.746): 1371.5 ± 0.7 kg/m3 | viscosity (343.15 K, x2 = 0): 18.84 ± 0.95 mPa·s | viscosity (343.15 K, x2 = 0.25): 15.23 ± 0.77 mPa·s | viscosity (343.15 K, x2 = 0.5): 14.13 ± 0.71 mPa·s | viscosity (343.15 K, x2 = 0.746): 15.46 ± 0.78 mPa·s | mass density (343.15 K, x2 = 0): 1261.3 ± 0.6 kg/m3 | mass density (343.15 K, x2 = 0.25): 1302.2 ± 0.7 kg/m3 | mass density (343.15 K, x2 = 0.5): 1336.3 ± 0.7 kg/m3 | mass density (343.15 K, x2 = 0.746): 1367.1 ± 0.7 kg/m3 | viscosity (348.15 K, x2 = 0): 16.47 ± 0.83 mPa·s | viscosity (348.15 K, x2 = 0.25): 13.43 ± 0.68 mPa·s | viscosity (348.15 K, x2 = 0.5): 12.54 ± 0.63 mPa·s | viscosity (348.15 K, x2 = 0.746): 13.66 ± 0.69 mPa·s | mass density (348.15 K, x2 = 0): 1257.5 ± 0.6 kg/m3 | mass density (348.15 K, x2 = 0.25): 1298.1 ± 0.7 kg/m3 | mass density (348.15 K, x2 = 0.5): 1332 ± 0.7 kg/m3 | mass density (348.15 K, x2 = 0.746): 1362.6 ± 0.7 kg/m3 | viscosity (353.15 K, x2 = 0): 14.83 ± 0.75 mPa·s | viscosity (353.15 K, x2 = 0.25): 11.94 ± 0.6 mPa·s | viscosity (353.15 K, x2 = 0.5): 11.18 ± 0.56 mPa·s | viscosity (353.15 K, x2 = 0.746): 12.23 ± 0.62 mPa·s | mass density (353.15 K, x2 = 0): 1253.7 ± 0.6 kg/m3 | mass density (353.15 K, x2 = 0.25): 1294 ± 0.7 kg/m3 | mass density (353.15 K, x2 = 0.5): 1327.8 ± 0.7 kg/m3 | mass density (353.15 K, x2 = 0.746): 1358.2 ± 0.7 kg/m3 | viscosity (358.15 K, x2 = 0): 12.86 ± 0.65 mPa·s | viscosity (358.15 K, x2 = 0.25): 10.63 ± 0.54 mPa·s | viscosity (358.15 K, x2 = 0.5): 9.981 ± 0.5 mPa·s | viscosity (358.15 K, x2 = 0.746): 10.93 ± 0.55 mPa·s | mass density (358.15 K, x2 = 0): 1249.9 ± 0.6 kg/m3 | mass density (358.15 K, x2 = 0.25): 1290 ± 0.7 kg/m3 | mass density (358.15 K, x2 = 0.5): 1323.5 ± 0.7 kg/m3 | mass density (358.15 K, x2 = 0.746): 1353.8 ± 0.7 kg/m3 | viscosity (363.15 K, x2 = 0): 11.48 ± 0.58 mPa·s | viscosity (363.15 K, x2 = 0.25): 9.541 ± 0.48 mPa·s | viscosity (363.15 K, x2 = 0.5): 8.973 ± 0.45 mPa·s | viscosity (363.15 K, x2 = 0.746): 9.909 ± 0.5 mPa·s | mass density (363.15 K, x2 = 0): 1246.2 ± 0.6 kg/m3 | mass density (363.15 K, x2 = 0.25): 1286.1 ± 0.7 kg/m3 | mass density (363.15 K, x2 = 0.5): 1319.3 ± 0.7 kg/m3 | mass density (363.15 K, x2 = 0.746): 1349.5 ± 0.7 kg/m3
